Laboratory results from ChEMBL document CHEMBL1201862, “PubChem BioAssay data set” (2004).
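Assay format: 96-well plates, 48-hour exposure. GI50: concentration for 50% inhibition of growth.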 Active and inactive are the calls of the source. Cut-off read from the data, not from the text of the source: active = GI50 up to about 1.1 µM and inactive = higher.

Tests used:
Assay in all cases: growth of human tumour cells (NCI), 48 h
[1] = tested on: K562
[2] = tested on: EKVX
[3] = tested on: RXF 393
[4] = tested on: HOP-92
[5] = tested on: HOP-62
[6] = tested on: BT-549
[7] = tested on: SK-MEL-28
[8] = tested on: A498
[9] = tested on: NCI-H460
[10] = tested on: UO-31
[11] = tested on: COLO 205
[12] = tested on: MCF7
[13] = tested on: NCI-H226
[14] = tested on: A549
[15] = tested on: SF-295
[16] = tested on: T47D
[17] = tested on: SF-539
[18] = tested on: SF-268
[19] = tested on: NCI-H23
[20] = tested on: DLD-1

| Structure (SMILES) | GI50 [1] | GI50 [2] | GI50 [3] | GI50 [4] | GI50 [5] | GI50 [6] | GI50 [7] | GI50 [8] | GI50 [9] | GI50 [10] | GI50 [11] | GI50 [12] | GI50 [13] | GI50 [14] | GI50 [15] | GI50 [16] | GI50 [17] | GI50 [18] | GI50 [19] | GI50 [20] |
| --- | --- | --- | --- | --- | --- | --- | --- | --- | --- | --- | --- | --- | --- | --- | --- | --- | --- | --- | --- | --- |
| O=C(O)CCc1nc(-c2ccccc2-n2cccc2)no1 | > 100 µM (inactive) | > 100 µM (inactive) | > 100 µM (inactive) | > 100 µM (inactive) | > 100 µM (inactive) | > 100 µM (inactive) | > 100 µM (inactive) | > 100 µM (inactive) | 73.6 µM (inactive) | > 100 µM (inactive) | > 100 µM (inactive) | 49.3 µM (inactive) | > 100 µM (inactive) | > 100 µM (inactive) | 49.9 µM (inactive) | > 100 µM (inactive) | > 100 µM (inactive) | > 100 µM (inactive) | > 100 µM (inactive) | – |
| CC(C)=NNc1ncnc2[nH]cnc12 | > 19.6 µM (inactive) | 12.9 µM (inactive) | 6.87 µM (inactive) | 16.9 µM (inactive) | 5.12 µM (inactive) | 48.1 µM (inactive) | 63 µM (inactive) | 5.07 µM (inactive) | 7.06 µM (inactive) | 3.21 µM (inactive) | 5.94 µM (inactive) | 4.07 µM (inactive) | 12 µM (inactive) | 4.89 µM (inactive) | 8.55 µM (inactive) | 11.2 µM (inactive) | 36.4 µM (inactive) | 7.89 µM (inactive) | 29.6 µM (inactive) | – |
| O=S1(=O)c2ccccc2NC(=S)N1c1ccccc1 | 49.1 µM (inactive) | 32.4 µM (inactive) | > 54.2 µM (inactive) | 3.89 µM (inactive) | 7.1 µM (inactive) | 47.6 µM (inactive) | > 89.9 µM (inactive) | > 58.9 µM (inactive) | > 79.1 µM (inactive) | 36.7 µM (inactive) | 77.8 µM (inactive) | 63.2 µM (inactive) | 43.9 µM (inactive) | 6.17 µM (inactive) | 3.49 µM (inactive) | 69.5 µM (inactive) | > 100 µM (inactive) | 71.1 µM (inactive) | 46.3 µM (inactive) | – |
| C=C1CCCC(C)(C)C1CCC1(C)CCC(C(C)C(=O)OC)OO1 (stereo unspecified) | 8.89 µM (inactive) | 7.91 µM (inactive) | 4.04 µM (inactive) | 0.764 µM (active) | 0.706 µM (active) | 4.9 µM (inactive) | 20.6 µM (inactive) | 5.87 µM (inactive) | 0.908 µM (active) | 0.748 µM (active) | 4.92 µM (inactive) | > 21.5 µM (inactive) | 6.18 µM (inactive) | 1.28 µM (inactive) | 4.48 µM (inactive) | 4.32 µM (inactive) | 6.3 µM (inactive) | 3.57 µM (inactive) | 3.78 µM (inactive) | – |
| COc1ccc(C2SCC(=O)N2c2ccc(-c3ccc(-n4c(-c5ccccc5)nc5ccccc5c4=O)cc3)cc2)cc1OC (stereo unspecified) | 23.3 µM (inactive) | 81.8 µM (inactive) | > 100 µM (inactive) | > 100 µM (inactive) | 18 µM (inactive) | 18.5 µM (inactive) | 57 µM (inactive) | > 100 µM (inactive) | 32.8 µM (inactive) | 44.2 µM (inactive) | 18.4 µM (inactive) | 27.7 µM (inactive) | 52.7 µM (inactive) | 27.9 µM (inactive) | 16.8 µM (inactive) | 22.4 µM (inactive) | 30.5 µM (inactive) | 43.5 µM (inactive) | > 100 µM (inactive) | – |
| Cc1ccc(S(=O)(=O)n2cc(-c3cnc(N)c(Br)n3)c3ccccc32)cc1 | 0.841 µM (active) | 3.48 µM (inactive) | 0.484 µM (active) | 3.94 µM (inactive) | 6.73 µM (inactive) | 22.7 µM (inactive) | 6.27 µM (inactive) | 2.68 µM (inactive) | 3.18 µM (inactive) | 4.18 µM (inactive) | 2.46 µM (inactive) | 0.757 µM (active) | 31.2 µM (inactive) | 2.22 µM (inactive) | 1.95 µM (inactive) | 6.76 µM (inactive) | 1.15 µM (inactive) | 2.96 µM (inactive) | 1.56 µM (inactive) | – |
| N=C(c1ccccc1)N(O)C1CCCCC1 | – | > 100 µM (inactive) | > 100 µM (inactive) | > 100 µM (inactive) | > 100 µM (inactive) | – | > 100 µM (inactive) | – | > 100 µM (inactive) | > 100 µM (inactive) | > 100 µM (inactive) | – | > 100 µM (inactive) | > 100 µM (inactive) | > 100 µM (inactive) | – | > 100 µM (inactive) | > 100 µM (inactive) | > 100 µM (inactive) | > 100 µM (inactive) |
| O=c1c2ccccc2[se]n1-c1cccnc1 | 40.6 µM (inactive) | 33.4 µM (inactive) | 29.2 µM (inactive) | 15.9 µM (inactive) | 24.9 µM (inactive) | 31.3 µM (inactive) | 24.7 µM (inactive) | 24.7 µM (inactive) | 53.6 µM (inactive) | 35.2 µM (inactive) | 20 µM (inactive) | 29.4 µM (inactive) | 28.4 µM (inactive) | 40.6 µM (inactive) | 31.9 µM (inactive) | 21.7 µM (inactive) | 21.9 µM (inactive) | 27 µM (inactive) | 21.4 µM (inactive) | – |
| CC(C)(C)N(Cc1ccccc1)C(=O)/C=C\[S+]([O-])c1ccccc1 (stereo unspecified) | 2.22 µM (inactive) | 10.5 µM (inactive) | 3.8 µM (inactive) | 3.37 µM (inactive) | 8.24 µM (inactive) | 2.94 µM (inactive) | 7.73 µM (inactive) | 13.4 µM (inactive) | 4.1 µM (inactive) | 2.34 µM (inactive) | 4.72 µM (inactive) | 2.92 µM (inactive) | 5.07 µM (inactive) | 11.5 µM (inactive) | 13.4 µM (inactive) | 4.2 µM (inactive) | 3.94 µM (inactive) | 2.07 µM (inactive) | 2.86 µM (inactive) | – |
| O=C1C=CC(=O)[C@H]2C3C=CC(C4C3C3(Cl)C(Cl)=C(Cl)[C@]4(Cl)C3(Cl)Cl)[C@@H]12 (stereo partly specified) | 3.14 µM (inactive) | 4.02 µM (inactive) | 4.17 µM (inactive) | 2.18 µM (inactive) | 17.1 µM (inactive) | 5.96 µM (inactive) | 4.91 µM (inactive) | 16 µM (inactive) | 4.02 µM (inactive) | 10.3 µM (inactive) | 5.7 µM (inactive) | 3.91 µM (inactive) | 6.47 µM (inactive) | 4.03 µM (inactive) | 12.5 µM (inactive) | 5.48 µM (inactive) | 5.28 µM (inactive) | 5.71 µM (inactive) | 12.6 µM (inactive) | – |
| Cc1cccc(C(C)(C)C)c1NC(=O)CC1C(=O)Nc2ccccc2[S+]1[O-] (stereo unspecified) | 34.1 µM (inactive) | – | – | 68.7 µM (inactive) | > 100 µM (inactive) | – | 41.5 µM (inactive) | – | 54.1 µM (inactive) | 41.6 µM (inactive) | 21.1 µM (inactive) | – | 69.3 µM (inactive) | 37 µM (inactive) | 62.8 µM (inactive) | – | 75.7 µM (inactive) | > 100 µM (inactive) | 26.4 µM (inactive) | 44.9 µM (inactive) |
| CCCC(=O)OC[n+]1ccc(-c2c(COC(=O)NC(C)C)c(COC(=O)NC(C)C)c3n2CCC3)cc1 | > 100 µM (inactive) | > 100 µM (inactive) | 34.5 µM (inactive) | > 100 µM (inactive) | 84.1 µM (inactive) | > 100 µM (inactive) | > 100 µM (inactive) | 39.7 µM (inactive) | 76.4 µM (inactive) | > 100 µM (inactive) | > 100 µM (inactive) | 80.7 µM (inactive) | > 100 µM (inactive) | > 100 µM (inactive) | 81.7 µM (inactive) | > 100 µM (inactive) | 28.1 µM (inactive) | 65.8 µM (inactive) | > 100 µM (inactive) | – |
| O=C1Nc2ccc(Br)cc2/C1=C/C(=O)c1ccccc1 | 5.57 µM (inactive) | 14.5 µM (inactive) | 1.95 µM (inactive) | 4.13 µM (inactive) | 22.7 µM (inactive) | 8.59 µM (inactive) | 14.8 µM (inactive) | 18.6 µM (inactive) | 18.2 µM (inactive) | 2.49 µM (inactive) | 2.11 µM (inactive) | 4.18 µM (inactive) | 13.9 µM (inactive) | 16.1 µM (inactive) | 17.8 µM (inactive) | 14.7 µM (inactive) | 6.08 µM (inactive) | 19.5 µM (inactive) | 10.2 µM (inactive) | – |
| C#CCn1ncc2c(SCc3ccccc3)ncnc21 | 52.7 µM (inactive) | 97.7 µM (inactive) | > 100 µM (inactive) | > 100 µM (inactive) | > 100 µM (inactive) | > 100 µM (inactive) | > 100 µM (inactive) | > 100 µM (inactive) | > 100 µM (inactive) | 89.7 µM (inactive) | > 100 µM (inactive) | 11.4 µM (inactive) | > 100 µM (inactive) | > 100 µM (inactive) | 53.5 µM (inactive) | 3.05 µM (inactive) | > 100 µM (inactive) | > 100 µM (inactive) | > 100 µM (inactive) | – |
| CC(=O)Nc1ccc(/C=C/[N+](=O)[O-])cc1 | 2 µM (inactive) | 3.13 µM (inactive) | 2.07 µM (inactive) | 4.14 µM (inactive) | 7.96 µM (inactive) | 6.15 µM (inactive) | 1.83 µM (inactive) | 5.19 µM (inactive) | 7.21 µM (inactive) | 2 µM (inactive) | 2.53 µM (inactive) | 2.79 µM (inactive) | 1.67 µM (inactive) | 4.47 µM (inactive) | 5.71 µM (inactive) | 4.1 µM (inactive) | 2.37 µM (inactive) | 4.67 µM (inactive) | 3.09 µM (inactive) | – |
